Experiments:
[1] = tested on: frog skin melanocortin receptor (Rana pipiens); assay: Relative potency compared to alpha MSH in a frog skin bioassay.
lizard = assay: Relative potency compared to alpha MSH in a lizard skin bioassay.; format: functional
[2] = Decrease in lizard skin reflectivity ([…] activity).; format: functional
[3] = biological target: frog skin melanocortin receptor (Rana pipiens); assay: Decrease in frog skin reflectivity ([…] activity).

Row | Structure (SMILES) | Relative potency [1] | Relative potency (lizard) | EC50 [2] [nM] | EC50 [3] [nM]
1 | CCCC[C@H](NC(C)=O)C(=O)N[C@H]1CC(=O)NCCCCC(C(N)=O)NC(=O)[C@H](Cc2c[nH]c3ccccc23)NC(=O)[C@H](CCCN=C(N)N)NC(=O)[C@@H]([C@H](C)c2ccccc2)NC(=O)[C@H](Cc2c[nH]cn2)NC1=O (single isomer, unassigned; 7) [listing 1 of 2 here] | 0.006 | 0.05 |  | 
2 | CCCC[C@H](NC(=O)[C@H](CO)NC(=O)[C@H](Cc1ccc(O)cc1)NC(=O)[C@H](CO)NC(C)=O)C(=O)N[C@@H](CCC(=O)O)C(=O)N[C@@H](Cc1c[nH]cn1)C(=O)N[C@@H](C(=O)N[C@@H](CCCN=C(N)N)C(=O)N[C@@H](Cc1c[nH]c2ccccc12)C(=O)NCC(=O)N[C@@H](CCCCN)C(=O)N1CCC[C@H]1C(=O)N[C@H](C(N)=O)C(C)C)[C@@H](C)c1ccccc1 (stereo in doubt; 16) |  |  | 0.5 | 
3 | CCCC[C@H](NC(C)=O)C(=O)N[C@H]1CC(=O)NCCCCC(C(N)=O)NC(=O)[C@H](Cc2c[nH]c3ccccc23)NC(=O)[C@H](CCCN=C(N)N)NC(=O)[C@@H]([C@H](C)c2ccccc2)NC(=O)[C@H](Cc2c[nH]cn2)NC1=O (single isomer, unassigned; 5) [listing 1 of 2 here] |  |  | 0.2 | 6.25
4 | CCCC[C@H](NC(C)=O)C(=O)N[C@H]1CC(=O)NCCCCC(C(N)=O)NC(=O)[C@H](Cc2c[nH]c3ccccc23)NC(=O)[C@H](CCCN=C(N)N)NC(=O)[C@@H]([C@@H](C)c2ccccc2)NC(=O)[C@H](Cc2c[nH]cn2)NC1=O (single isomer, unassigned) | 0.05 | 3.3 | 0.3 | 2
5 | CCCC[C@H](NC(=O)[C@H](CO)NC(=O)[C@H](Cc1ccc(O)cc1)NC(=O)[C@H](CO)NC(C)=O)C(=O)N[C@@H](CCC(=O)O)C(=O)N[C@@H](Cc1c[nH]cn1)C(=O)N[C@H](C(=O)N[C@@H](CCCN=C(N)N)C(=O)N[C@@H](Cc1c[nH]c2ccccc12)C(=O)NCC(=O)N[C@@H](CCCCN)C(=O)N1CCC[C@H]1C(=O)N[C@H](C(N)=O)C(C)C)[C@@H](C)c1ccccc1 |  |  | 3.33 | 
6 | CCCC[C@H](NC(C)=O)C(=O)N[C@H]1CC(=O)NCCCCC(C(N)=O)NC(=O)C([C@H](C)c2c[nH]c3ccccc23)NC(=O)[C@H](CCCN=C(N)N)NC(=O)C(Cc2ccccc2)NC(=O)[C@H](Cc2c[nH]cn2)NC1=O (single isomer, unassigned; 11) [listing 1 of 2 here] |  |  | 1 | 0.33
7 | CCCC[C@H](NC(C)=O)C(=O)N[C@H]1CC(=O)NCCCCC(C(N)=O)NC(=O)C([C@H](C)c2c[nH]c3ccccc23)NC(=O)[C@H](CCCN=C(N)N)NC(=O)C(Cc2ccccc2)NC(=O)[C@H](Cc2c[nH]cn2)NC1=O (single isomer, unassigned; 11) [listing 2 of 2 here] | 0.3 | 1 |  | 
8 | CCCC[C@H](NC(C)=O)C(=O)N[C@H]1CC(=O)NCCCCC(C(N)=O)NC(=O)[C@H](Cc2c[nH]c3ccccc23)NC(=O)[C@H](CCCN=C(N)N)NC(=O)[C@@H]([C@H](C)c2ccccc2)NC(=O)[C@H](Cc2c[nH]cn2)NC1=O (single isomer, unassigned; 7) [listing 2 of 2 here] |  |  | 20 | 16.7
9 | CCCC[C@H](NC(C)=O)C(=O)N[C@H]1CC(=O)NCCCCC(C(N)=O)NC(=O)C([C@H](C)c2c[nH]c3ccccc23)NC(=O)[C@H](CCCN=C(N)N)NC(=O)C(Cc2ccccc2)NC(=O)[C@H](Cc2c[nH]cn2)NC1=O (single isomer, unassigned; 10) [listing 1 of 2 here] |  |  | 1.43 | 0.06
10 | CCCC[C@H](NC(C)=O)C(=O)N[C@H]1CC(=O)NCCCC[C@H](C(N)=O)NC(=O)[C@H]([C@@H](C)c2c[nH]c3ccccc23)NC(=O)[C@H](CCCN=C(N)N)NC(=O)[C@@H](Cc2ccccc2)NC(=O)[C@H](Cc2c[nH]cn2)NC1=O | 0.23 | 1 |  | 
11 | CCCC[C@H](NC(C)=O)C(=O)N[C@H]1CC(=O)NCCCCC(C(N)=O)NC(=O)[C@H](Cc2c[nH]c3ccccc23)NC(=O)[C@H](CCCN=C(N)N)NC(=O)C([C@@H](C)c2ccccc2)NC(=O)[C@H](Cc2c[nH]cn2)NC1=O (single isomer, unassigned) | 0.016 | 0.29 | 3.44 | 6.25
12 | CCCC[C@H](NC(C)=O)C(=O)N[C@H]1CC(=O)NCCCCC(C(N)=O)NC(=O)C([C@H](C)c2c[nH]c3ccccc23)NC(=O)[C@H](CCCN=C(N)N)NC(=O)C(Cc2ccccc2)NC(=O)[C@H](Cc2c[nH]cn2)NC1=O (single isomer, unassigned; 10) [listing 2 of 2 here] | 1.6 | 0.7 |  | 
13 | CCCC[C@H](NC(C)=O)C(=O)N[C@H]1CC(=O)NCCCC[C@@H](C(N)=O)NC(=O)[C@H]2Cc3c([nH]c4ccccc34)CN2C(=O)[C@H](CCCNC(=N)N)NC(=O)[C@@H](Cc2ccccc2)NC(=O)[C@H](Cc2cnc[nH]2)NC1=O |  |  | 11.1 | 1
14 | CCCC[C@H](NC(C)=O)C(=O)N[C@H]1CC(=O)NCCCCC(C(N)=O)NC(=O)[C@H](Cc2c[nH]c3ccccc23)NC(=O)[C@H](CCCN=C(N)N)NC(=O)[C@@H]([C@H](C)c2ccccc2)NC(=O)[C@H](Cc2c[nH]cn2)NC1=O (single isomer, unassigned; 5) [listing 2 of 2 here] | 0.016 | 5 |  | 
15 | CCCC[C@H](NC(C)=O)C(=O)N[C@H]1CC(=O)NCCCC[C@@H](C(N)=O)NC(=O)[C@H]([C@@H](C)c2c[nH]c3ccccc23)NC(=O)[C@H](CCCN=C(N)N)NC(=O)[C@@H](Cc2ccccc2)NC(=O)[C@H](Cc2c[nH]cn2)NC1=O |  |  | 1 | 
16 | CCCC[C@H](NC(C)=O)C(=O)N[C@H]1CC(=O)NCCCCC(C(N)=O)NC(=O)[C@H]([C@H](C)c2c[nH]c3ccccc23)NC(=O)[C@H](CCCN=C(N)N)NC(=O)C(Cc2ccccc2)NC(=O)[C@H](Cc2c[nH]cn2)NC1=O (single isomer, unassigned) | 0.004 | 0.15 | 6.67 | 
17 | CCCC[C@H](NC(C)=O)C(=O)N[C@H]1CC(=O)NCCCC[C@@H](C(N)=O)NC(=O)[C@@H]2Cc3c([nH]c4ccccc34)CN2C(=O)[C@H](CCCNC(=N)N)NC(=O)[C@@H](Cc2ccccc2)NC(=O)[C@H](Cc2cnc[nH]2)NC1=O |  |  | 20 | 3.33
18 | CCCC[C@H](NC(=O)[C@H](CO)NC(=O)[C@H](Cc1ccc(O)cc1)NC(=O)[C@H](CO)NC(C)=O)C(=O)N[C@@H](CCC(=O)O)C(=O)N[C@@H](Cc1c[nH]cn1)C(=O)N[C@@H](C(=O)N[C@@H](CCCN=C(N)N)C(=O)N[C@@H](Cc1c[nH]c2ccccc12)C(=O)NCC(=O)N[C@@H](CCCCN)C(=O)N1CCC[C@H]1C(=O)N[C@H](C(N)=O)C(C)C)[C@@H](C)c1ccccc1 (stereo in doubt; 17) |  |  | 1 | 
19 | CCCC[C@H](NC(=O)[C@H](CO)NC(=O)[C@H](Cc1ccc(O)cc1)NC(=O)[C@H](CO)NC(C)=O)C(=O)N[C@@H](CCC(=O)O)C(=O)N[C@@H](Cc1c[nH]cn1)C(=O)N[C@H](C(=O)N[C@@H](CCCN=C(N)N)C(=O)N[C@@H](Cc1c[nH]c2ccccc12)C(=O)NCC(=O)N[C@@H](CCCCN)C(=O)N1CCC[C@H]1C(=O)N[C@H](C(N)=O)C(C)C)[C@H](C)c1ccccc1 |  |  | 1 | 
